US6468981B1, “Compositions and methods for targeting pharmaceutically active materials to cells containing androgen receptors” (Emory University, priority 1994, dated 2002)

Assays:
[1] = target: androgen receptor of LNCaP prostate tumor cells (Homo sapiens, UniProt P10275, T878A); settings: cited from earlier work
LNCaP cells = assay: Expression of pCMV-beta (lacZ) DNA in LNCaP cells, X-gal blue staining, number of blue cells per culture plate; assay type: cell-based, human; settings: DHT-poly-L-lysine alone, no DNA; 48 hours incubation
Experimental: DHT poly-L-lysine as described in Example 1 was dialyzed against tris-EDTA buffer pH=7 (“HMW-D”) or purified by gel filtration column chromatography (“HMW-2=fraction #2 of the column, HMW-9=fraction 9 of the column). Protein concentrations of reaction products and column fractions were determined by the coomassie blue method. DHT-poly-L-lysine at amounts from 0.05 micrograms to 12.5 micrograms were mixed with pCMV-beta DNA expression construct containing the lacZ gene driven by the CMV immediate early promoter/enhancer in a pVC19 backbone, in amounts from 3 to 50 micrograms in 100 microliters of water at room temperature for one hour with vortex mixing every 15 minutes.
The reaction products of Example 2 were added to 1-3 ml of tissue culture media supplemented with 10% fetal bovine serum and filtered through 0.2 micron filter and added to subconfluent cultures of LNCaP cells growing on glass slides. Cells were incubated at 37 degrees C. 5% CO2 for 48 hours. Next, adherent cells were washed with phosphate buffered saline (PBS) and fixed with 2% paraformaldelyde in 0.1 M NaPO4 buffer pH=7.4 for 45 min. to one hour. Fixative was aspirated and cells rinsed with PBS and X-gal stain was applied. […] Each culture plate was scored for the number of cells which turned blue.

Chain of androgen receptor of LNCaP prostate tumor cells (P10275 whole entry T878A): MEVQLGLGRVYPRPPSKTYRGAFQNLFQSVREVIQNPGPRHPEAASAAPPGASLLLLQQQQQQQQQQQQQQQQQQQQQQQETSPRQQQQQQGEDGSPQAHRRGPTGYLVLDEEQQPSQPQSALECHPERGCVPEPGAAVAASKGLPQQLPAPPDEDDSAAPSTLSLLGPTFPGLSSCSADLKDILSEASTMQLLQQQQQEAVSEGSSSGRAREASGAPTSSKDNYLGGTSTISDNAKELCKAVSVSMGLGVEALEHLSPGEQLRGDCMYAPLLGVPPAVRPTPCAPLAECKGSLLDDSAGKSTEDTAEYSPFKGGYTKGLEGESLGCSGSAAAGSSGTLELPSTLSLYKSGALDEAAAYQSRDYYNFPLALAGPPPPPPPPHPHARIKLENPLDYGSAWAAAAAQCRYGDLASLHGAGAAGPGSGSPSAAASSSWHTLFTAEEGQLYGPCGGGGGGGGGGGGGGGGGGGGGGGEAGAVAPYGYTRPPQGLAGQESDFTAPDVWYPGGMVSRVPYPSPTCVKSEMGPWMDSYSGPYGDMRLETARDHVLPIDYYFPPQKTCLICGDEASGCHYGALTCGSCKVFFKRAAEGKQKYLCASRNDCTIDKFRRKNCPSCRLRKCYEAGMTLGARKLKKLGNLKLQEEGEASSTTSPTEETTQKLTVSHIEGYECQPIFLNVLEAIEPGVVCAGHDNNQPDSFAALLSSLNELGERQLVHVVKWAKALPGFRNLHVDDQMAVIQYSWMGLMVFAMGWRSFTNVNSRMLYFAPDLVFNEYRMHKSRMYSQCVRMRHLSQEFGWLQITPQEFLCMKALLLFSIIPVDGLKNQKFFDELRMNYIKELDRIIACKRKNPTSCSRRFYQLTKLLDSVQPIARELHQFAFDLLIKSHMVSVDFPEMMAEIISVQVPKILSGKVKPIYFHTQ

Molecule	Relative binding affinities for the androgen receptor [1]	positive (blue-stained) cells (LNCaP cells)
C[C@]1(O)CC[C@H]2[C@@H]3CCC4=CC(=O)CCC4=C3C=C[C@@]21C [R1881, 17β-hydroxy-17α-methyl-estra-4,9,11-trien-3-one]	100	
DHT-poly-L-lysine HBr		no positive cells
